Measurements taken from patent publication US10759787B2, “Benzofuran derivative, preparation method thereof and use thereof in medicine” (Jiangsu Hengrui Medicine Co., Ltd., priority 2015, dated 2020).

Experiments:
Pfeiffer cells = assay: In vitro anti-tumor cell growth assay (CellTiter-Glo), Pfeiffer; assay type: cell-based; settings: Homo sapiens, 120 h; Pfeiffer cells (A677G mutant), 5 days; read-out: IC50 for inhibiting the growth activity of tumor cells (Pfeiffer) in vitro
Procedure: (§1) Test Example 2. Assay for Determining In Vitro Anti-Tumor Cell Growth Activity of the Example Compounds of the Present Invention
(§2) This method was used to determinate the inhibitory effect of the compounds of the present invention on the growth activity of tumor cells (Pfeiffer or WSU-DLCL2) in vitro. Pfeiffer cells carry A677G mutant, and WSU-DLCL2 cells carry Y641F mutant.
(§3) The lymphoma suspension cell line (Pfeiffer or WSU-DLCL2) was cultured in a RPMI-1640 medium containing 10% inactivated Fetal Bovine Serum, 100 U/mL penicillin, and 100 μg/mL streptomycin, and incubated in an incubator with 5% carbon dioxide at 37° C. under a saturated humidity condition, and passaged every 3-4 days.
(§4) A cell sudpension was prepared with a fresh cell medium, added to a 96-well cell culture plate at 8000 cells/well (Pfeiffer) or 2000 cells/well (WSU-DLCL2), and incubated in 5% carbon dioxide at 37° C. incubator overnight. On the day of the experiment, the EZH2 test compounds (final concentration: 20000, 2000, 200, 20, 2, 0.2 nM) were added into the experimental wells for 3 parallel wells per group. A control well with the medium alone but without cells was set up to obtain the background luminescent value. The cell culture plate was incubated in an incubator with 5% carbon dioxide at 37° C. for 5 days.
(§5) After the compounds were applied to the cells for 5 days, the cell culture plate was placed at room temperature for 30 minutes, then a CellTiter-Glo reagent equal to the volume of cell culture medium was added to each well. The contents were mixed on a shaker for 10 minutes, and the […] signal values were recorded. The cell growth inhibition rate was calculated, and the formula was: cell growth inhibiton rate=[(negative control control−experimental group)/(negative control group−background luminescent value)]×100%. The IC50 values (half inhibition rate IC50, i.e., a drug concentration that is required for 50% cell growth inhibition rate) were calculated by software from the cell growth inhibiton rate and the corresponding concentration.

EZH2-A677G = EZH2-A677G (Homo sapiens (Human), UniProt Q15910, A677G); assay: EZH2-A677G mutant enzyme activity assay (HTRF); assay type: biochemical; settings: read-out: IC50 for inhibiting the activity of enzyme EZH2-A677G
Procedure: (§6) Histone H3 biotin labeling and S-adenosyl methionine were respectively diluted to 50 nM and 50 μM with a kinase buffer, then added to a 384-well plate at 4 μl/well. The test compound was diluted with a kinase buffer (it was diluted from the highest concentration 30 μM in 10 fold concentration gradient to 7 concentration points), then added to the 384-well microtiter plate at 4 μl/well. The plate was incubated at room temperature for 2 hours. Histone H3K27 Me3 monoclonal antibody and Streptavidin-XL665 were diluted to 30 nM and 500 nM by HTRF detection buffer, then added to the 384-well microplate at 10 µl/well and incubated for 1 hour. A well without an EZH2 enzyme and a compound was used as a negative control, and a well with an EZH2 enzyme but without a compound was used as a positive control. […] The compound logarithm concentration vs the inhibition percentage relative to the positive control well was plotted using GraphPad Prism, then the IC50 values were calculated.

[1] = Pharmacokinetics assay in SD rats after intragastrical administration; assay type: in vivo; settings: both sexes, Sprague-Dawley, rat, plasma, po, 5 mg/kg; for Vd/F: read-out: Apparent Distribution Volume Vz/F; for AUC: read-out: Area Under Curve AUC; for CL/F: read-out: Clearance CL/F; for half-life: read-out: Half-Life t1/2 (converted); for MRT: read-out: Mean Residence Time MRT; for Cmax: read-out: Plasma Conc. Cmax
Procedure: Test Example 3. Pharmacokinetics Assay of the Compounds of Examples 1, 2, 3 and 9 of the Present Invention
SD rats were used as test animals. The drug concentration in plasma at different time points was determined by LC/MS/MS after intragastrical administration of the compounds of Examples 1, 2, 3 and 9 to the rats. The pharmacokinetic behavior of the compounds of the present invention was studied and evaluated in rats.
16 healthy adult Sprague-Dawley (SD) rats, half male and half female, were purchased from SINO-BRITSH SIPPR/BK LAB. ANIMAL LTD., CO, with Certificate No.: SCXK (Shanghai) 2008-0016.
The appropriate amount of each compound was weighed, and added with 0.5% CMC-Na (containing 1% Tween 80) to prepare a 1.0 mg/mL suspension by grinding.
After an overnight fast, 16 SD rats were divided into 4 groups equally, half male and half female, and administered intragastrically the test compounds at an administration volume of 5 mL/kg.
Blood (0.2 mL) was taken from the orbital sinus before administration and at 0.5, 1.0, 2.0, 4.0, 6.0, 8.0, 11.0, and 24.0 hours after administration. The samples were stored in heparinized tubes, and centrifuged for 10 minutes at 3,500 rpm to separate the blood plasma. The plasma samples were stored at −20° C.
The plasma concentration of the test compounds in rat plasma after intragastric administration was determined by LC-MS/MS.
Pharmacokinetic parameters of the compounds of Examples 1, 2, 3 and 9 of the present invention are shown below: […]

WSU-DLCL2 cells = assay: In vitro anti-tumor cell growth assay (CellTiter-Glo), WSU-DLCL2; assay type: cell-based; settings: Homo sapiens, WSUDLCL2, 120 h; WSU-DLCL2 cells (Y641F mutant), 5 days; read-out: IC50 for inhibiting the growth activity of tumor cells (WSU-DLCL2) in vitro
Procedure: as §1, §2, §3, §4, §5

EZH2-Y641F = EZH2-Y641F (Homo sapiens (Human), UniProt Q15910, Y641F); assay: EZH2-Y641F mutant enzyme activity assay (HTRF); assay type: biochemical; settings: read-out: IC50 for inhibiting the activity of enzyme EZH2-Y641F
Procedure: as §6

Sequence of EZH2-Y641F (Q15910 whole entry Y641F): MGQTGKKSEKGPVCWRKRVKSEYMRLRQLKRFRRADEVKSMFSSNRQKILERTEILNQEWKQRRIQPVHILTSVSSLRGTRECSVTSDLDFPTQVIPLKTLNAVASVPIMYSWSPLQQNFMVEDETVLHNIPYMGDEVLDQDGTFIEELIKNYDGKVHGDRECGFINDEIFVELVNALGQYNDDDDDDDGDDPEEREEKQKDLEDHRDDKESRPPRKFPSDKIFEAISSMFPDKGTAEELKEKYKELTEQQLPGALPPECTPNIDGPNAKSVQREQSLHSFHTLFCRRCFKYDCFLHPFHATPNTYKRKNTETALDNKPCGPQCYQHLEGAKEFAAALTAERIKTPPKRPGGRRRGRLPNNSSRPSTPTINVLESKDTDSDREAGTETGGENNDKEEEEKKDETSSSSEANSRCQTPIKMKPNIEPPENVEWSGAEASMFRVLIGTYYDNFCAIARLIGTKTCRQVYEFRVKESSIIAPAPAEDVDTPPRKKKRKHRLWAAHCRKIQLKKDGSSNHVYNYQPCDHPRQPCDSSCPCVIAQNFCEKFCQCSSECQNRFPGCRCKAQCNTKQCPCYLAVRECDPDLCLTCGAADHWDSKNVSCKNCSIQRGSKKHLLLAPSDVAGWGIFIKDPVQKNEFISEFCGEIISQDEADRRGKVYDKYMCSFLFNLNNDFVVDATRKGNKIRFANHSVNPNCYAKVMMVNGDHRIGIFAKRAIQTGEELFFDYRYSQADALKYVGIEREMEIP
Sequence of EZH2-Y641F (O75530 whole entry partner): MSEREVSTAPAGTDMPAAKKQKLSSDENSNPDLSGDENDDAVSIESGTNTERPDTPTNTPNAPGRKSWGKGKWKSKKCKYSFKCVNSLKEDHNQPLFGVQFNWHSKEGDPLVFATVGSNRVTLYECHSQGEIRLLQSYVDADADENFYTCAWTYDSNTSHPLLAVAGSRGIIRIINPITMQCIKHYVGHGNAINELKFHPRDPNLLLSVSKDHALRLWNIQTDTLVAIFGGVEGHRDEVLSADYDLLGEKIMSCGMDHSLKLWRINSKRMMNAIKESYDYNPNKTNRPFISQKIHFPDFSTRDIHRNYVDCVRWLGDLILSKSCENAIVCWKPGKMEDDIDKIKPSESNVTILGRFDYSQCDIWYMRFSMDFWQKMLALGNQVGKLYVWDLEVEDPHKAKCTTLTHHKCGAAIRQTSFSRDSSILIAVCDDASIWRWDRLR
Sequence of EZH2-Y641F (Q15022 whole entry partner): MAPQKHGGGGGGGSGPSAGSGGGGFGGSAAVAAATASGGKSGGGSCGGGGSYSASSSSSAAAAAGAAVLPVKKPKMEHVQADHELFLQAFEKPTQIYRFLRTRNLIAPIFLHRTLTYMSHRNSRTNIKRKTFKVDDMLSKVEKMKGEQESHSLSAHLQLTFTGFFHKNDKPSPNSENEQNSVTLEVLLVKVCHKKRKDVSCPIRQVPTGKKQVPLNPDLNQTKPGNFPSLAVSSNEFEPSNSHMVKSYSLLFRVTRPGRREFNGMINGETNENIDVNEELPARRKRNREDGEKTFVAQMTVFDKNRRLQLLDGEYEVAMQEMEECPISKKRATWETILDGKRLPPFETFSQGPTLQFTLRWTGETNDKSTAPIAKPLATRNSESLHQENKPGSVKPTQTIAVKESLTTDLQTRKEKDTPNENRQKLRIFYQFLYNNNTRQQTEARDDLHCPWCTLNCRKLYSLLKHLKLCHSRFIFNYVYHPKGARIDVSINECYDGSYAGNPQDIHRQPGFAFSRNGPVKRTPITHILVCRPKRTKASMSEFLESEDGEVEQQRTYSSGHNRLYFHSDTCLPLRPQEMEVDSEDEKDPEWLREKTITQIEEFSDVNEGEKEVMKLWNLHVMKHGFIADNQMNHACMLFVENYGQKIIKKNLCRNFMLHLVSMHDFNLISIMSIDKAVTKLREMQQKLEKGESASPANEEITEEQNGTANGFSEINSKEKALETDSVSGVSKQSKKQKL
Sequence of EZH2-Y641F (Q09028 whole entry partner): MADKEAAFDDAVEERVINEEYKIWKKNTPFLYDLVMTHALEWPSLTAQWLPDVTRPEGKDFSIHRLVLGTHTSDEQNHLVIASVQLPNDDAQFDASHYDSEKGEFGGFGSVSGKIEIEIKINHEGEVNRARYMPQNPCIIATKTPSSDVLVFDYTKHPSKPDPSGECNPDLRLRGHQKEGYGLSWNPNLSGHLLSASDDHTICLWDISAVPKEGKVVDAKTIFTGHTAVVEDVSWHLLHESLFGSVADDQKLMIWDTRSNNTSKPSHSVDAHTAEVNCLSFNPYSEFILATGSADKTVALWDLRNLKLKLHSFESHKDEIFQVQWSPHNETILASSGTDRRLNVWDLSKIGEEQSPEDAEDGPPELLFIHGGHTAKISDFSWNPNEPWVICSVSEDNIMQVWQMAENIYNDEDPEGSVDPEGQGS
Sequence of EZH2-Y641F (Q6ZN18 whole entry partner): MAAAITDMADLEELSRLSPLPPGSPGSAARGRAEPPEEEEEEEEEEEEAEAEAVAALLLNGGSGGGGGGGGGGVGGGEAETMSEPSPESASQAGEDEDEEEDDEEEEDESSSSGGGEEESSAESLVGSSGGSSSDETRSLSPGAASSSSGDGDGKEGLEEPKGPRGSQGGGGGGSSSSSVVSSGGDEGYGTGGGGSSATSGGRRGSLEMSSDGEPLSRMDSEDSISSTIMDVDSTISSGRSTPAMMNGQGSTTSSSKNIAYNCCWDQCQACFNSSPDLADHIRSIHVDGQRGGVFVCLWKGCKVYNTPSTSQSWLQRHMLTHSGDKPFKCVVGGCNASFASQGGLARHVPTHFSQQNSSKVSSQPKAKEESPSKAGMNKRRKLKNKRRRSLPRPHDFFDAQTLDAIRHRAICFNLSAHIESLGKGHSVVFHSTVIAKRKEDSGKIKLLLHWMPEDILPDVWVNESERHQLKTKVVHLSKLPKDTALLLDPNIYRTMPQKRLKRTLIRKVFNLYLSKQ
Sequence of EZH2-A677G (Q15910 whole entry A677G): as the sequence (Q15910 whole entry Y641F) above, with F641Y, A677G counted along it
Sequence of EZH2-A677G (O75530 whole entry partner): as the sequence (O75530 whole entry partner) above
Sequence of EZH2-A677G (Q15022 whole entry partner): as the sequence (Q15022 whole entry partner) above
Sequence of EZH2-A677G (Q09028 whole entry partner): as the sequence (Q09028 whole entry partner) above
Sequence of EZH2-A677G (Q6ZN18 whole entry partner): as the sequence (Q6ZN18 whole entry partner) above

SMILES	IC50 (Pfeiffer cells)	IC50 (EZH2-A677G)	Vd/F [1]	AUC [1]	CL/F [1]	half-life [1]	MRT [1]	Cmax [1]	IC50 (WSU-DLCL2 cells)	IC50 (EZH2-Y641F)
CCc1c(N(CC)C2CCOCC2)cc2oc(CN3CCCCC3)cc2c1C(=O)NCc1c(OC)cc(C)[nH]c1=O [Example 1, 5-Ethyl-6-(ethyl(tetrahydro-2H-pyran-4-yl)amino)-N-((4-methoxy-6-methyl-2-oxo-1,2-dihydropyridin-3-yl)methyl)-2-(piperidin-1-ylmethyl)benzofuran-4-carboxamide]	2 nM	6.4 nM	28.1 ± 18.4 L/kg	246 ± 127 ng·h/mL	390 ± 201 mL/min/kg	0.8 ± 0.13 h	2.37 ± 0.18 h	88.9 ± 77.1 ng/mL		
CCc1c(N(CC)C2CCOCC2)cc2oc(CN3CCCCC3)cc2c1C(=O)NCc1c(C)cc(C)[nH]c1=O [Example 2, N-((4,6-Dimethyl-2-oxo-1,2-dihydropyridin-3-yl)methyl)-5-ethyl-6-(ethyl(tetrahydro-2H-pyran-4-yl)amino)-2-(piperidin-1-ylmethyl)benzofuran-4-carboxamide]	13 nM		41.4 ± 7.91 L/kg	378 ng·h/mL	222 ± 23 mL/min/kg	2.2 ± 0.68 h	3.18 ± 0.3 h	105 ± 44.5 ng/mL	39 nM	
CCc1cc(C)[nH]c(=O)c1CNC(=O)c1c(CC)c(N(CC)C2CCOCC2)cc2oc(CN3CCCCC3)cc12 [Example 3, 5-Ethyl-6-(ethyl(tetrahydro-2H-pyran-4-yl)amino)-N-((4-ethyl-6-methyl-2-oxo-1,2-dihydropyridin-3-yl)methyl)-2-(piperidin-1-ylmethyl)benzofuran-4-carboxamide]	4 nM	38 nM	40.5 ± 7.97 L/kg	487 ± 12 ng·h/mL	171 ± 4.4 mL/min/kg	2.73 ± 0.53 h	4.65 ± 0.184 h	91.5 ± 5.6 ng/mL		
CCc1c(N(CC)C2CCOCC2)cc2oc(C3CCN(C(C)C)CC3)cc2c1C(=O)NCc1c(C)cc(C)[nH]c1=O [Example 9, N-((4,6-Dimethyl-2-oxo-1,2-dihydropyridin-3-yl)methyl)-5-ethyl-6-(ethyl(tetrahydro-2H-pyran-4-yl)amino)-2-(1-isopropylpiperidin-4-yl)benzofuran-4-carboxamide]	7 nM	5.7 nM	35.1 ± 37.1 L/kg	274 ± 180 ng·h/mL	562 ± 592 mL/min/kg	0.719 ± 0.15 h	3.48 ± 0.107 h	79.1 ± 50.7 ng/mL	55 nM	4 nM
CCN(c1cc2oc(C)cc2c(C(=O)NCc2c(OC)cc(C)[nH]c2=O)c1C)C1CCOCC1 [Example 19, 6-(Ethyl(tetrahydro-2H-pyran-4-yl)amino)-N-((4-methoxy-6-methyl-2-oxo-1,2-dihydropyridin-3-yl)methyl)-2,5-dimethylbenzofuran-4-carboxamide]	14 nM	2.9 nM							232 nM	2.8 nM
CCN(c1cc2occ(C)c2c(C(=O)NCc2c(OC)cc(C)[nH]c2=O)c1C)C1CCOCC1 [Example 20, 6-(Ethyl(tetrahydro-2H-pyran-4-yl)amino)-N-((4-methoxy-6-methyl-2-oxo-1,2-dihydropyridin-3-yl)methyl)-3,5-dimethylbenzofuran-4-carboxamide]		5.9 nM								5.6 nM
COc1cc(C)[nH]c(=O)c1CNC(=O)c1c(C)c(N(C)C2CCOCC2)cc2occc12 [Example 23, N-((4-Methoxy-6-methyl-2-oxo-1,2-dihydropyridin-3-yl)methyl)-5-methyl-6-(methyl(tetrahydro-2H-pyran-4-yl)amino)benzofuran-4-carboxamide]	68 nM	4.8 nM								0.3 nM
CCN(c1cc2occc2c(C(=O)NCc2c(OC)cc(C)[nH]c2=O)c1C)[C@H]1CC[C@H](N(C)C)CC1 [Example 24, 6-(((1r,4r)-4-(Dimethylamino)cyclohexyl)(ethyl)amino)-N-((4-methoxy-6-methyl-2-oxo-1,2-dihydropyridin-3-yl)methyl)-5-methylbenzofuran-4-carboxamide]	19 nM								45 nM	3.4 nM
CCN(c1cc2occc2c(C(=O)NCc2c(OC)cc(C)[nH]c2=O)c1C)C1CCN(S(C)(=O)=O)CC1 [Example 25, 6-(Ethyl(1-(methylsulfonyl)piperidin-4-yl)amino)-N-((4-methoxy-6-methyl-2-oxo-1,2-dihydropyridin-3-yl)methyl)-5-methylbenzofuran-4-carboxamide]	15 nM	0.9 nM							160 nM	3.2 nM
CCN(c1cc2occc2c(C(=O)NCc2c(OC)cc(C)[nH]c2=O)c1C)C1CCN(C(C)=O)CC1 [Example 26, 6-((1-Acetylpiperidin-4-yl)(ethyl)amino)-N-((4-methoxy-6-methyl-2-oxo-1,2-dihydropyridin-3-yl)methyl)-5-methylbenzofuran-4-carboxamide]		2.9 nM								2.8 nM

Results, then the molecule that gave them:

IC50 (Pfeiffer cells)	IC50 (EZH2-A677G)	Vd/F [1]	AUC [1]	CL/F [1]	half-life [1]	MRT [1]	Cmax [1]	IC50 (WSU-DLCL2 cells)	IC50 (EZH2-Y641F)	SMILES
20 nM	4 nM							113 nM	2.3 nM	CCN(c1cc2occc2c(C(=O)NCc2c(OC)cc(C)[nH]c2=O)c1C)C1CCOCC1 [Example 18, 6-(Ethyl(tetrahydro-2H-pyran-4-yl)amino)-N-((4-methoxy-6-methyl-2-oxo-1,2-dihydropyridin-3-yl)methyl)-5-methylbenzofuran-4-carboxamide]
69 nM	2.7 nM								4.5 nM	CCc1c(N(CC)C2CCC(F)(F)CC2)cc2occc2c1C(=O)NCc1c(OC)cc(C)[nH]c1=O [Example 31, 6-((4,4-Difluorocyclohexyl)(ethyl)amino)-5-ethyl-N-((4-methoxy-6-methyl-2-oxo-1,2-dihydropyridin-3-yl)methyl)benzofuran-4-carboxamide]
18 nM	4 nM							190 nM		CCc1c(N(CC)C2CC(F)(F)C2)cc2occc2c1C(=O)NCc1c(OC)cc(C)[nH]c1=O [Example 32, 6-((3,3-Difluorocyclobutyl)(ethyl)amino)-5-ethyl-N-((4-methoxy-6-methyl-2-oxo-1,2-di hydropyridin-3-yl)methyl)benzofuran-4-carboxamide]
22 nM	2.7 nM								0.8 nM	CCc1c(N(CC)C2CCS(=O)(=O)CC2)cc2occc2c1C(=O)NCc1c(OC)cc(C)[nH]c1=O [Example 33, 6-((1,1-Dioxidotetrahydro-2H-thiopyran-4-yl)(ethyl)amino)-5-ethyl-N-((4-methoxy-6-methyl-2-oxo-1,2-dihydropyridin-3-yl)methyl)benzofuran-4-carboxamide]
